Experimental data as given in ChEMBL document CHEMBL1158592, “Synthesis and biological evaluation of isoflavone fatty acid esters with potential weight loss and hypolipidemic activities” (Bioorg Med Chem, 2010).
Activity calls are given as the source filed them. The rule behind the calls is not given here.

How the values were obtained:
3T3-L1 [1] = assay: Increase in PPARgamma mRNA levels in mouse 3T3L1 cells at 100 umol/L by RT-PCR; format: functional, cell-based
Rattus norvegicus [2] = assay: Antiobese activity in high fat diet-fed Sprague-Dawley rat assessed as body weight at 50 mg/kg, ig administered QD for 30 days (reference value: 355+/-36 g); format: functional; conditions: route intragastric
Rattus norvegicus [3] = assay: Antiobese activity in high fat diet-fed Sprague-Dawley rat assessed as plasma free fatty acid level at 50 mg/kg, ig administered QD for 30 days (reference value: 785.6+/-175.8 umol/L); format: functional; conditions: route intragastric
Rattus norvegicus [4] = assay: Antiobese activity in high fat diet-fed Sprague-Dawley rat assessed as plasma triglyceride level at 50 mg/kg, ig administered QD for 30 days (reference value: 1.25+/-0.23 mmol/L); format: functional; conditions: route intragastric
Rattus norvegicus [5] = assay: Antiobese activity in high fat diet-fed Sprague-Dawley rat assessed as plasma total cholesterol level at 50 mg/kg, ig administered QD for 30 days (reference value: 1.86+/-0.31 mmol/L); format: functional; conditions: route intragastric
3T3-L1 [6] = assay: Inhibition of mouse 3T3L1 cells differentiation after 48 hrs by oil-red-O staining; format: functional, cell-based
3T3-L1 [7] = assay: Decrease in triglyceride content in mouse 3T3L1 cells assessed as reduction of lipid droplets after 48 hrs by oil-red-O staining; format: functional, cell-based
Rattus norvegicus [8] = assay: Antiobese activity in high fat diet-fed Sprague-Dawley rat assessed as body fat mass measured per 100 g of body weight at 50 mg/kg, ig administered QD for 30 days (reference value: 6.4+/-1.4 g/100 g); format: functional; conditions: route intragastric
Mus musculus [9] = assay: Hypolipidemic activity in high fat diet-fed C57BL/6 mouse assessed as increase in plasma HDL level at 200 mg/kg, ig administered QD for 4 weeks; format: functional, organism-based; design: dose 200 mg/kg
Mus musculus [10] = assay: Hypolipidemic activity in high fat diet-fed C57BL/6 mouse assessed as decrease in plasma total cholesterol level at 200 mg/kg, ig administered QD for 4 weeks; format: functional, organism-based; design: dose 200 mg/kg
Mus musculus [11] = assay: Hypolipidemic activity in high fat diet-fed C57BL/6 mouse assessed as decrease in plasma LDL level at 200 mg/kg, ig administered QD for 4 weeks; format: functional, organism-based; design: dose 200 mg/kg
Mus musculus [12] = assay: Hypolipidemic activity in high fat diet-fed C57BL/6 mouse assessed as decrease in plasma triglyceride level at 200 mg/kg, ig administered QD for 4 weeks; format: functional, organism-based; design: dose 200 mg/kg
Rattus norvegicus [13] = assay: Antiobese activity in high fat diet-fed Sprague-Dawley rat assessed as plasma free fatty acid level at 10 mg/kg, ig administered QD for 30 days (reference value: 785.6+/-175.8 umol/L); format: functional; conditions: route intragastric
Rattus norvegicus [14] = assay: Antiobese activity in high fat diet-fed Sprague-Dawley rat assessed as body fat mass measured per 100 g of body weight at 10 mg/kg, ig administered QD for 30 days (reference value: 6.4+/-1.4 g/100 g); format: functional; conditions: route intragastric
Rattus norvegicus [15] = assay: Antiobese activity in high fat diet-fed Sprague-Dawley rat assessed as body weight at 10 mg/kg, ig administered QD for 30 days (reference value: 355+/-36 g); format: functional; conditions: route intragastric
Rattus norvegicus [16] = assay: Antiobese activity in high fat diet-fed Sprague-Dawley rat assessed as plasma triglyceride level at 10 mg/kg, ig administered QD for 30 days (reference value: 1.25+/-0.23 mmol/L); format: functional; conditions: route intragastric
Rattus norvegicus [17] = assay: Antiobese activity in high fat diet-fed Sprague-Dawley rat assessed as plasma total cholesterol level at 10 mg/kg, ig administered QD for 30 days (reference value: 1.86+/-0.31 mmol/L); format: functional; conditions: route intragastric
3T3-L1 [18] = assay: Inhibition of mouse 3T3L1 cells differentiation assessed as morphological changes after 48 hrs by oil-red-O staining; format: functional, cell-based
[19] = Acute toxicity in ig dosed KM mouse by Bliss method; format: organism-based; conditions: in vivo, po
Mus musculus [20] = assay: Hypolipidemic activity in high fat diet-fed C57BL/6 mouse assessed as increase in plasma HDL level at 50 mg/kg, ig administered QD for 4 weeks; format: functional, organism-based; design: dose 50 mg/kg
Mus musculus [21] = assay: Hypolipidemic activity in high fat diet-fed C57BL/6 mouse assessed as decrease in plasma triglyceride level at 50 mg/kg, ig administered QD for 4 weeks; format: functional, organism-based; design: dose 50 mg/kg
Mus musculus [22] = assay: Hypolipidemic activity in high fat diet-fed C57BL/6 mouse assessed as decrease in plasma total cholesterol level at 50 mg/kg, ig administered QD for 4 weeks; format: functional, organism-based; design: dose 50 mg/kg
Mus musculus [23] = assay: Hypolipidemic activity in high fat diet-fed C57BL/6 mouse assessed as decrease in plasma LDL level at 50 mg/kg, ig administered QD for 4 weeks; format: functional, organism-based; design: dose 50 mg/kg
Mus musculus [24] = assay: Reduction in plasma insulin level in high fat diet-fed C57BL/6 mouse at 50 mg/kg, ig administered QD for 4 weeks; format: functional, organism-based; design: dose 50 mg/kg
3T3-L1 [25] = assay: Antiproliferative activity against mouse 3T3L1 cells after 48 hrs by MTT assay; format: functional, cell-based

Compound	Activity (3T3-L1 [1])	Activity (Rattus norvegicus [2]) [g]	Activity (Rattus norvegicus [3]) [µmol/L]	Activity (Rattus norvegicus [4]) [mmol/L]	Activity (Rattus norvegicus [5]) [mmol/L]	inhibition (3T3-L1 [6])	Activity (3T3-L1 [7])	Activity (Rattus norvegicus [8]) [g/100 g body weight]	further results
CCCCC/C=C\C/C=C\CCCCCCCC(=O)Oc1ccc2c(=O)c(-c3ccc(OC)cc3)coc2c1	Active	307	603.8	0.99	1.28	Active	Active	4.3	–
CCCCCCCCCCCCCCCCCC(=O)Oc1ccc(-c2coc3cc(OC)ccc3c2=O)cc1	–	352	738.1	1.35	1.71	–	–	6	–
CCCCCCCC/C=C\CCCCCCCC(=O)Oc1ccc(-c2coc3cc(OC)ccc3c2=O)cc1	–	328	696.3	1.01	1.65	–	–	5.6	–
O=C(O[C@H]1[C@H](OC(=O)c2cccnc2)[C@@H](OC(=O)c2cccnc2)[C@H](OC(=O)c2cccnc2)[C@@H](OC(=O)c2cccnc2)[C@H]1OC(=O)c1cccnc1)c1cccnc1	–	–	–	–	–	–	–	–	Activity (Mus musculus [9]): Active; Activity (Mus musculus [10]): Active; Activity (Mus musculus [11]): Active; Activity (Mus musculus [12]): Active
CCCCC/C=C\C/C=C\CCCCCCCC(=O)Oc1ccc(-c2coc3cc(OC)ccc3c2=O)cc1	–	318	658.8	1.03	1.67	–	–	5.1	–
CC(C)CC(N(C)C)C1(c2ccc(Cl)cc2)CCC1 (stereo unspecified) [SIBUTRAMINE]	–	–	–	–	–	–	–	–	Activity (Rattus norvegicus [13]): 609.6 µmol/L; Activity (Rattus norvegicus [14]): 4.3 g; Activity (Rattus norvegicus [15]): 301 g; Activity (Rattus norvegicus [16]): 0.97 mmol/L; Activity (Rattus norvegicus [17]): 1.32 mmol/L
CCc1ccc(CCOc2ccc(CC3SC(=O)NC3=O)cc2)nc1 (stereo unspecified)	Active	–	–	–	–	–	–	–	–
CCCCCCCCCCCCCCCC(=O)Oc1ccc2c(=O)c(-c3ccc(OC)cc3)coc2c1	inactive	–	–	–	–	Active	Active	–	–
COc1ccc(-c2coc3cc(O)ccc3c2=O)cc1	Active	–	–	–	–	–	–	–	–
CCCCCCCC/C=C\CCCCCCCC(=O)Oc1ccc2c(=O)c(-c3ccc(OC)cc3)coc2c1 [OLEOYL FORMONONETIN]	Active	309	606.7	0.91	1.31	Active	Active	5	inhibition (3T3-L1 [18]): Active; LD50 [19]: 2160 mg/kg; Activity (Mus musculus [20]): Active; Activity (Mus musculus [21]): Active; Activity (Mus musculus [22]): Active; Activity (Mus musculus [23]): Active; Activity (Mus musculus [24]): Active; Activity (3T3-L1 [25]): Active
CCCCCCCCCCCCCCCCCC(=O)Oc1ccc2c(=O)c(-c3ccc(OC)cc3)coc2c1	inactive	320	730.2	1.19	1.57	Active	Active	5.4	–
